Data set [1] has as its system rat. The settings on record: cited from earlier work.
Data set [2] in a line: Dissolution Test 2: release of active ingredients from sports-gel style mouthwash (protocol 1B) under simulated mastication, QTOF-UHPLC. The settings on record: for release profile from sports-gel style mouthwash: 10 g mouthwash of protocol 1B in 100 mL stirred water at 37° C., samples 10-600 s, FIGS. 7-11; for relative release profile, order of release: protocol 1B mouthwash, peak-normalised plots, FIG. 12. The data set is classed as physicochemical. Here is the method: A sports-gel style mouthwash was prepared according to protocol 1B described above. In order to measure the release of the active ingredients from the mouthwash, it was necessary to recreate the mastication conditions of the mouth. The following protocol was employed for this purpose: • i. Whilst stirring with a 3.5 cm magnetic stirrer set at the “7” rotation setting, heat 100 mL of water to 37° C. in a beaker. • ii. Aspirate 1 mL of solution using a pipette to obtain a standard sample. • iii. Add 10 g of the sports-gel style mouthwash prepared according to protocol 1B to the heated water. • Aspirate 1 mL of the resultant solution at time intervals of t=10, 20, 40, 60, 90, 120, 150, 180, 210, 240, 270, 300, 360 and 600 seconds, ensuring that the samples are taken from the outermost rim of the beaker.
Prior to mass spectrometry analysis, the samples and standards obtained were diluted 1 part in 10 in acetonitrile (ACN). All concentrations given below for the calibration are of these diluted solutions.
All samples and calibration standards were injected in the following order: triplicate injections of full calibration standards from low to high concentration, triplicate injection of acetonitrile blank, triplicate injection of sample series B in timeline sequence (each with a single blank in between), single injection of full calibration standards from low to high concentration, triplicate injection of blank acetonitrile, triplicate injection of sample series B in timeline sequence (each with a single blank in between). The reason for the second, shorter, series of calibration standards was to determine if there was any significant decrease in sensitivity (indicated by decrease in peak area) during the batch.
The QTOF-UHPLC analysis was conducted using a MaXis HD quadrupole electrospray time-of-flight (ESI-QTOF) mass spectrometer (Bruker Daltonik GmbH, Bremen, Germany) operated in ESI positive-ion MS mode. The QTOF was coupled to an Ultimate 3000 UHPLC (Thermo Fisher Scientific, California, USA). The capillary voltage was set to 4500 V, nebulising gas at 2 bar, drying gas at 10 L/min at 200° C. The TOF scan range was from 50-750 mass-to-charge ratio (m/z). For effective transmission of ions the ion energy was set to 1.0 eV with the collision energy for TOF MS acquisition at 2.0 eV. Liquid chromatography was performed using a Kinetex […], 2.1×100 mm HILIC column (Phenomenex) with a flow rate of 0.4 mL/min at 30° C. and an injection volume of 10 μL. Mobile phases A and B consisted of 50:50 ACN:H2O with 0.2% v/v formic acid and 10 mM ammonium formate, and 95:5 ACN:H2O with 0.2% v/v formic acid and 10 mM ammonium formate, respectively. Gradient elution was carried out with 100% mobile phase B until 2 min followed by a linear gradient to 0% B at 12 mins, keeping 0% B up until 15 mins, thereafter returned to 100% B until in 20 mins total run time. The MS instrument was calibrated using a range of sodium formate clusters introduced by 10 μL loop-injection prior to the chromatographic run. The mass calibrant solution consisted of 3 parts of 1 M NaOH to 97 parts of 50:50 water:isopropanol with 0.2% formic acid. The observed mass and isotope pattern perfectly matched the corresponding theoretical values as calculated from the expected elemental formula. Most of the target compounds were detected as [M+H]^+ and [M+Na]^+ ions. Data processing was performed using the Data Analysis software version 4.3 (Bruker Daltonik GmbH, Bremen, Germany). Quantification was carried out using the peak area in the extracted ion chromatogram (EIC) of the sum of the protonated and sodiated ion of the target compound.
Using the mass spectrometry data obtained, it is possible evaluate the release profiles of the active ingredients present in the sports-gel style mouthwash under simulated mastication conditions.

Read-outs that look alike come from different tables or passages of the source.

With `CC1CCC(C(C)C)C(O)C1` (centres unmarked) [Menthol], in data set [1] (in vivo), the LD50 rat is given as 3,300 mg/kg.

As for `O=[N+]([O-])[O-].[K+]` [Potassium nitrate], the LD50 rat in data set [1] was 3,750 mg/kg.

Regarding Sorbitan monolaurate, in data set [2], the “release profile from sports-gel style mouthwash” value is “fast release” and the “relative release profile, order of release” value (“relative release profile” for short) is listed as “the next active ingredient to reach an effective concentration”.

For the molecule `Cc1ccc(C(C)C)c(O)c1` [Thymol], the “release profile from sports-gel style mouthwash” value in data set [2] is recorded as “reaches its maximum concentration at a later stage of mastication”.

`O` [Water]: in data set [1], the LD50 rat was 90,000 mg/kg.

For the molecule `CC12CCC(CC1)C(C)(C)O2` [Eucalyptol], in data set [2], the “release profile from sports-gel style mouthwash” value is on record as “reaches its maximum concentration significantly later than, for example, the glycerol or sorbitan monolaurate” and the “relative release profile” value is given as “follow the release of the surfactant”.

For the molecule `OC[C@@H](O)[C@H](O)[C@@H](O)CO` [Xylitol], in data set [2], the “release profile from sports-gel style mouthwash” value was “released quickly” and the “relative release profile” value was “follow the release of the surfactant”. In addition, the LD50 rat in data set [1] (in vivo) is reported as 16,500 mg/kg.

For the molecule `OCC(O)CO` [Glycerine, glycerol], in data set [2], the “release profile from sports-gel style mouthwash” value was “immediately releases into the surrounding solution and reaches its effective concentration within seconds”; the “relative release profile” value is given as “released immediately upon commencing mastication”. The LD50 rat in data set [1] (in vivo) is reported as 12,600 mg/kg.

The values above are taken from patent publication US11219580B2, “Oral composition” (Andalay Technologies Limited, priority 2016, dated 2022).
